Experimental data published in patent US20180327364A1, “MTOR INHIBITORS AND METHODS OF USE THEREOF” (Brandeis University, priority 2015, published 2018).

Experiments:
[1] = target: T1, recombinant firefly luciferase (Photinus pyralis, UniProt P08659); experiment: Recombinant luciferase assay; type: biochemical; conditions: 100 μM compound, 10 min incubation
T1 construct: purchased Promega
Experimental: Stably transduced luciferase HEK-293T cells were plated in 96-well plates 24 h prior to treatment with 100 μM of Cbz-B3A, amine-B3A, acetyl-B3A, and Cbz-acetyl. After 4 h, cells were harvested and measured with Luciferase Assay System with Reporter Lysis Buffer from Promega according to the manufacturer's protocol. Before the addition of luciferin, protein concentration was measured by removing 2 μl of lysate from each well and adding it to diluted Bio-Rad Protein Assay Dye Reagent Concentrate, and the absorbance was measured at OD595. The protein concentration was used to normalize luciferase signal. For translation assays, cells were pretreated for 15 min with 100 μg/mL cycloheximide or 6 μM bortezomib. For the recombinant luciferase assay, Quantilum Recombinant Luciferase (Promega) was diluted 1:250,000 in reporter lysis buffer with 1 mg/mL BSA then mixed 1:1 with 200 μM compound in the same buffer for a final dilution of 1:500,000 and 100 μM compound in 20 μL. This was incubated for 10 min at room temperature then measured with Luciferase Assay System with Reporter Lysis Buffer from Promega according to the manufacturer's protocol.

[2] = test system: protein translation in HEK-293T cells; experiment: 35S-methionine/cysteine incorporation translation assay; type: cell-based; conditions: Homo sapiens, HEK-293T, 4 h treatment then 1 h labeling
Experimental: 80,000 cells/well of HEK-293T cells were plated into 24 well plates 24 h before the assay. Cells were treated with indicated concentration of compound for 4 h. After 4 h, the media was removed and replaced with DMEM without methionine and cysteine (Lifetechnologies) supplemented with 0.2 mCi/mL EXPRESS [^35S] protein labeling mix (PerkinElmer), 10% dialyzed FBS (Pierce), 1× glutaMax (Gibco), 100 U/mL penicillin 100 μg/mL streptomycin (Gibco), 1 mM sodium pyruvate (Lifetechnologies), and the indicated concentration of compound. After 1 h, this media was removed, cells were washed with ice cold PBS, and lysed with low deoxycholate RIPA buffer (10 mM Tris-Cl, 1% NP-40, 0.5% Na Deoxycholate, 0.1% SDS, 140 mM NaCl, 1 mM EDTA, 500 μM EGTA, 1× Roche Complete protease inhibitors, 1:100 Benzonase, and at pH 8.0). Lysate was centrifuged at maximum speed for 20 m at 4° C. The concentration was measured by Bradford assay. 10 μg of lysate was added to […] ice cold 1 mg/mL BSA with 0.02% Na Azide. 1 mL of ice cold 10% TCA was added, the solutions were mixed and incubated on ice for 0.5 h. These mixtures were vacuum filtered onto GF/C Whatman glass microfiber filters. The filters were washed with 2×5 mL of 10% TCA, then 2×3 mL ethanol. The filters were then dried for a 0.5 h. The filters were placed into scintillation vials with 5 mL of scintillation fluid and read on a scintillation counter.

[3] = test system: eIF2α; experiment: eIF2α phosphorylation immunoblot in HEK-293T cells; type: cell-based; conditions: 1 h; tunicamycin 5 μg/mL, thapsigargin 500 nM; compared with vehicle
Experimental: (§1) Quantification of western blots was performed with ImageJ. Cells were lysed in RIPA buffer (1% NP-40, 1% NaDeoxycholate, 0.1% SDS, 10 mM TrisCl, 10 mM β-glycerophosphate, 10 mM Na pyrophosphate, 50 mM NaF, 200 μM Na vanadate, 1 mM EDTA, 500 μM EGTA, 1% benzonase, and supplemented with complete (Roche Diagnostics) protease inhibitors).

[4] = test system: p70s6k phosphorylation (mTORC1); experiment: p70s6k phosphorylation immunoblot in HEK-293T cells; type: cell-based
Experimental: as §1

[5] = test system: mTOR; experiment: mTOR level and mTOR phosphorylation immunoblot in HEK-293T cells; type: cell-based; conditions: 10 μM, 4 h
Experimental: as §1

[6] = test system: LC3 A/B II; experiment: LC3 A/B II immunoblot (autophagy) in HEK-293T cells; type: cell-based; conditions: Cbz-B3A 10 μM, rapamycin 20 nM, 4 h
Experimental: as §1

[7] = test system: mTORC2 catalyzed phosphorylation of Akt; experiment: Akt phosphorylation immunoblot (mTORC2) in HEK-293T cells; type: cell-based; conditions: HEK-293T cells treated with Cbz-B3A
Experimental: as §1

[8] = test system: HEK-293T cells; experiment: CellTiter-Glo proliferation, HEK-293T; type: cell-based; conditions: Homo sapiens, 48 h
Experimental: (§2) To determine cellular growth, CellTiter-Glo luminescent cell viability assay (Promega) was used per the manufacturer's instruction. To determine cytotoxicity, LDH release was measured with the LDH Cytotoxicity Assay Kit (Pierce) according to the manufacture's protocol. For 4 h assays, 96 well plates were seeded at 75,000 cells/mL for BaF3/p210 cells or K562 cells. For HEK-293T cells, 10,000 cells/well were plated 24 h before treatment. Cells were treated for 4 h at 37° C. and […] was removed from every well and used in the LDH Cytotoxicity assay per the manufacturer's protocol. For 48 h assays, 7,500 cells/mL of BaF3/p210 or K562 cells were incubated with compound at 37° C. for 48 h (200 μL/well). For HEK-293T cells, 1,000 cells/well were plated 24 h prior to compound treatment. After treatment, 50 μL was removed from each well for the LDH assay for all cell lines and 100 μL of mixed cells were removed and used with the CellTiter-Glo kit for K562 and BaF3/p210 cells. For HEK-293T cells, wells were treated directed with the CellTiter-Glo kit. Cytotoxicity or viability was measured by luminosity and absorbance on a microplate reader.

[9] = test system: K562 cells; experiment: CellTiter-Glo proliferation, K562; type: cell-based; conditions: Homo sapiens, 48 h
Experimental: as §2

[10] = test system: BaF3/p210 cells; experiment: CellTiter-Glo proliferation, BaF3/p210; type: cell-based; conditions: Mus musculus, 48 h
Experimental: as §2

[11] = test system: K562, BaF3/p210, and HEK-293T cells; experiment: LDH release cytotoxicity assay; type: cell-based; conditions: 4 and 48 h
Experimental: as §2

[12] = test system: MOLT-4; experiment: NCI-60 DTP Human Tumor Cell Line Screen, MOLT-4; type: cell-based; conditions: 10 μM, 48 h
Experimental: (§3) Screen was conducted as previously described, performed at Developmental Therapeutics Program NCI/NIH.

[13] = test system: SR; experiment: NCI-60 DTP Human Tumor Cell Line Screen, SR; type: cell-based; conditions: 10 μM, 48 h
Experimental: as §3

[14] = test system: Rheb; experiment: Rheb level immunoblot in HEK-293T cells; type: cell-based; conditions: 10 μM, 4 h; p=0.04 vs DMSO
Experimental: as §1

[15] = test system: TSC2; experiment: TSC2 level immunoblot in HEK-293T cells; type: cell-based; conditions: 10 μM, 4 h; p=0.19 vs DMSO
Experimental: as §1

[16] = test system: firefly luciferase; experiment: Luciferase assay in stably transduced luciferase HEK-293T cells; type: cell-based; conditions: 100 μM Cbz-B3A, 4 h, anti-HA immunoblot

T1 sequence (P08659 whole entry): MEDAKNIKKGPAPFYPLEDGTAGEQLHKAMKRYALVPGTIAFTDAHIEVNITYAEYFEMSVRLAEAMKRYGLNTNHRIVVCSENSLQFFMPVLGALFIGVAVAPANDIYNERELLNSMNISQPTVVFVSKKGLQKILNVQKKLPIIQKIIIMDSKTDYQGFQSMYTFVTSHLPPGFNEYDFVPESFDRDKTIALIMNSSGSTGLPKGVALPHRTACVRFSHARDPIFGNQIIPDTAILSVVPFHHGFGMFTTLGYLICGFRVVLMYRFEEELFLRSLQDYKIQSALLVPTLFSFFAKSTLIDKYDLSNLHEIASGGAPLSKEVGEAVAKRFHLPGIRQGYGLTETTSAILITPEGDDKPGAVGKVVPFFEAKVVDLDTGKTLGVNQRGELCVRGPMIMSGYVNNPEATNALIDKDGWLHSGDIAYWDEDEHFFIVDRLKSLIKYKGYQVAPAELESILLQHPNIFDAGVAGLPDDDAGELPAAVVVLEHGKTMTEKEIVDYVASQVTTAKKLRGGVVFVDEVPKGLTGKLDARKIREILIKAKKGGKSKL

Question: With `CC(C)(C)OC(=O)/N=C(\NCCC[C@H](NC(=O)OC(C)(C)C)C(=O)NCCCCCCNC(=O)OCc1ccccc1)NC(=O)OC(C)(C)C` [Cbz-B3A] as the compound, how does the “recombinant firefly luciferase signal (enzymatic activity)” value [1] read?
Answer: no reduction of signal

Question: And the EC50 ([2]; read-out: EC50 of inhibition of 35S-methionine/cysteine incorporation)?
Answer: ~3 µM

Question: And the inhibition at 10 µM ([2]; saturating concentration (Cbz-B3A 10 μM), read-out: maximal inhibition of translation (35S-methionine/cysteine incorporation))?
Answer: 68%

Question: And the eIF2α phosphorylation [3]?
Answer: no increase in eIF2α phosphorylation

Question: And the “p70s6k Ser371 phosphorylation” value ([4]; 10 μM, 4 h)?
Answer: did not inhibit phosphorylation

Question: What about the EC50 ([4]; Homo sapiens, HEK-293T, 4 h, read-out: EC50 of inhibition of p70s6k Thr389 phosphorylation) of the same compound?
Answer: ~5 µM

Question: What about the “phosphorylation retained at Thr389 of p70s6k” value ([4]; at maximum inhibition) of the same compound?
Answer: approximately 30%

Question: And the “Ser2481 phosphorylation of mTOR” value [5]?
Answer: no change in Ser2481 phosphorylation

Question: And the “levels of mTOR” value [5]?
Answer: did not change

Question: What about the “phosphorylation of mTOR at Ser2448” value [5] of the same compound?
Answer: only a small effect

Question: What about the “LC3 A/B II (autophagy)” value [6] of the same compound?
Answer: increased LC3 A/B II to equivalent levels as rapamycin

Question: And the “Akt phosphorylation at Ser473” value [7]?
Answer: No decrease in Akt phosphorylation

Question: What about the inhibition at 10 µM [8] of the same compound?
Answer: 64%

Question: What about the inhibition at 10 µM [9] of the same compound?
Answer: 52%

Question: And the inhibition at 10 µM [10]?
Answer: 68%

Question: And the “cytotoxicity by release of lactate dehydrogenase” value [11]?
Answer: not cytotoxic

Question: What about the “decrease in proliferation, MOLT-4” value [12] of the same compound?
Answer: 80%

Question: And the “decrease in proliferation, SR” value [13]?
Answer: 83%

Question: And the “amount of Rheb” value [14]?
Answer: increased the amount of Rheb

Question: And the “amount of TSC2” value [15]?
Answer: appeared to increase the amount of TSC2

Question: And the “decrease in amount of luciferase protein” value [16]?
Answer: approximately 40%
